Marks after values point to notes of the source that are not given here.

One series deals with Staphylococcus aureus. Also noted: method as in PMID 28789896, PMID 31303986, PMID 33369262. The conditions noted are these: previously reported; cited from earlier work.
The test system of series [1] is Staphylococcus epidermidis. The arrangement: method as in PMID 28789896, PMID 31303986, PMID 33369262. The conditions noted are these: previously reported; cited from earlier work.
In another series the test system is Pseudomonas aeruginosa. The arrangement: method as in PMID 28789896, PMID 31303986, PMID 33369262. The conditions noted are these: previously reported; cited from earlier work.
For series [2] the following is noted: previously reported; cited from earlier work.
The next series has as its system Escherichia coli. Also noted: method as in PMID 28789896, PMID 31303986, PMID 33369262. The conditions noted are these: previously reported; cited from earlier work.
In series [3] the test system is M. pneumoniae strains FH, M52, Mac, Bru, and M129-B7. In words: Propidium iodide (PI) uptake assay, membrane disruption. Format: cell-based, Mycoplasma pneumoniae. The conditions noted are these: 10 μmol/L AMP, PI 5 μg/mL in PBS, triplicate. The protocol: We performed the PI uptake assays based on the previously described method with modification for M. pneumoniae. M. pneumoniae strains FH, M52, Mac, Bru, and M129-B7 were cultured as described above. Briefly, the 90 mL culture was done in PPLO-based medium for 6 days to observe the medium color change from red to yellow. The mycoplasma in the culture medium was centrifuged at 11,740g for 30 min at 4°C, and the precipitation was suspended in 20 mL phosphate buffered saline (PBS) by passing through a 60 mm-length 25-gauge needle (Top Corporation, Tokyo, Japan) three times. The suspension was centrifuged again at 11,740g for 30 min at 4°C, and 2.25 mL PBS was added to the precipitation. The 2× mycoplasma suspension was prepared by passing through a 60 mm-length 25-gauge needle five times. When using heat-killed M. pneumoniae (HKMp), the 2× suspension was heated at 95°C for 10 min. The 2× PI assay reaction mix based on PBS containing 20 μmol/L of an antimicrobial peptide or saline, and 10 μg/mL PI (Dojindo, Tokyo, Japan). Each assay was performed with a 96-well black flat-bottomed plate (PerkinElmer, Waltham, MA, USA) using a final cell volume of 100 μL prepared by mixing 2× mycoplasma suspension and 2× PI assay reaction mix at 1:1 in volume ratio. The intercalation fluorescence of PI was measured by using an Infinite 200 Pro F Plex microplate reader (Tecan, Zürich, Switzerland) every 2 min, with an excitation filter at 535 nm (half width: 25 nm) and an emission filter at 620 nm (half width: 20 nm). The averages and standard deviations of the fluorescent intensities was calculated, and normalised by an average fluorescence between 10 and 20 min of HKMp as 100% relative fluorescence, and by a minimum average fluorescence between 0 and 20 min of whole data as 0% relative fluorescence.

In series [4] the test system is Mycoplasma pneumoniae FH. The experiment in a line: Killing assay, strain FH. The settings on record: 30 μmol/L AMP, 3 days; for Killing assay result compared with saline: Welch's t test, p < 0.005; for Cell numbers (CFU/mL) after treatment with antimicrobial peptides, killing assay: initial 10^6 CFU/mL, triplicate, mean, saline 3.59×10^6.
The subject of series [5] is Mycoplasma pneumoniae FH. The experiment in a line: Biofilm assay (crystal violet, absorbance at 550 nm), strain FH. The settings on record: initial 10^5 CFU/mL; for Effect in the biofilm assay: 0% CO2, up to 30 μmol/L; for Concentration with statistically significant effect in the biofilm assay: 0% CO2, 6-8 days at 37°C, p < 0.005, Shirley-Williams test.
Series [6] has as its system Mycoplasma pneumoniae FH. The experiment in a line: Colorimetric assay (absorbance at 560 nm), strain FH. The settings on record: initial 10^5 CFU/mL, 0% CO2, up to 30 μmol/L.
The subject of series [7] is Mycoplasma pneumoniae Mac. The experiment in a line: Killing assay, strain Mac. The conditions noted are these: AMP 30 μmol/L, 3 days, initial 10^6 CFU/mL, triplicate, mean, saline 4.19×10^6.
The subject of series [8] is Mycoplasma pneumoniae Bru. In words: Killing assay, strain Bru. The settings on record: AMP 30 μmol/L, 3 days, initial 10^6 CFU/mL, triplicate, mean, saline 3.48×10^6.
The subject of series [9] is Mycoplasma pneumoniae Mac. The experiment in a line: Colorimetric and biofilm assays, strain Mac. The conditions noted are these: biofilm assay, p < 0.005.
The test system of series [10] is Mycoplasma pneumoniae Bru. In words: Colorimetric and biofilm assays, strain Bru. The settings on record: biofilm assay, p < 0.005.
Series [11] deals with Mycoplasma pneumoniae M129-B7. In words: Killing assay, strain M129-B7. The settings on record: AMP 30 μmol/L, 3 days, initial 10^6 CFU/mL, triplicate, mean, saline 3.79×10^6.
Series [12] deals with Mycoplasma pneumoniae M129-B7. In words: Colorimetric and biofilm assays, strain M129-B7. Format: cell-based. The conditions noted are these: strain M129-B7; biofilm assay; p < 0.005.
The subject of series [13] is Mycoplasma pneumoniae M52. In words: Colorimetric and biofilm assays, strain M52. The settings on record: up to 30 μmol/L, Shirley-Williams test.
The test system of series [14] is Mycoplasma pneumoniae M52. The experiment in a line: Killing assay, strain M52. The conditions noted are these: AMP 30 μmol/L, 3 days, initial 10^6 CFU/mL, triplicate, mean, saline 3.62×10^6.
Where [15] appears, read: five strains, read every 2 min up to 20 min.
The mark [16] stands for this setting: strains FH, M129-B7, and M52, up to 20 min.

On to H-GIGKFLHSAKKFGKAFV-NH2 [Mag2-17base], for which, in the series with Staphylococcus aureus, the “MIC, Gram-positive, S. a.” value was 50 µM. Moreover, the “MIC, Gram-positive, S. e” value in series [1] is 12.5 µM. In the series on Pseudomonas aeruginosa, the “MIC, Gram-negative, P. a.” value was 3.13 µM. Further, the “Haemolysis (concentration with haemolytic effect)” value (shortened to “Haemolysis”) in series [2] is over 100 µmol/L. Also, the “MIC, Gram-negative, E. c.” value with Escherichia coli was 3.13 µM. In addition, the “PI fluorescence compared with live Mp without peptide” value in series [3] (setting [15]) is “fluorescence of live Mp without any peptides were higher”. Besides, in the series with Mycoplasma pneumoniae FH [4], the “Killing assay result compared with saline” value is “limited influence on the growth” and the “Cell numbers (CFU/mL) after treatment with antimicrobial peptides, killing assay” value (from here on “Cell numbers (CFU/mL) after treatment”) is reported as 4.86×10^6 CFU/mL. For the same substance, in the series on Mycoplasma pneumoniae FH [5], the “Effect in the biofilm assay” value is given as “no difference”.

Consider “H-GIGKFLHSAKKFGKAFVGEIMNS-NH2 [Mag2, magainin 2]”, for which the “MIC, Gram-positive, S. a.” value in the series on Staphylococcus aureus was 100 µM. The “MIC, Gram-positive, S. e” value in series [1] is 25 µM. For the same substance, the “Effect in the colorimetric assay” value in the series on Mycoplasma pneumoniae FH [6] is recorded as “no difference”. Moreover, in the series with Pseudomonas aeruginosa, the “MIC, Gram-negative, P. a.” value was 12.5 µM. The “MIC, Gram-negative, E. c.” value in the series on Escherichia coli was 3.13 µM. In addition, in series [3] (setting [15]), the “PI fluorescence compared with live Mp without peptide” value is listed as “fluorescence of live Mp without any peptides were higher”. In the series on Mycoplasma pneumoniae FH [4], the “Killing assay result compared with saline” value is on record as “limited influence on the growth” and the “Cell numbers (CFU/mL) after treatment” value is given as 4.06×10^6 CFU/mL. In addition, in the series on Mycoplasma pneumoniae FH [5], the “Concentration with statistically significant effect in the biofilm assay” value was found to be 30 µmol/L.

In the case of H-GIGKFLHSUKKFGKUFV-NH2 [17base-Aib], the “MIC, Gram-positive, S. a.” value in the series with Staphylococcus aureus is 12.5 µM. In addition, the “MIC, Gram-positive, S. e” value in series [1] was 3.13 µM. Also, the “MIC, Gram-negative, P. a.” value with Pseudomonas aeruginosa is 1.56 µM. For the same substance, the “Haemolysis” value in series [2] is over 100 µmol/L. Moreover, the “MIC, Gram-negative, E. c.” value with Escherichia coli is 3.13 µM. For the same substance, in series [3] (setting [15]), the “PI fluorescence compared with live Mp without peptide” value is on record as “slight fluorescent shift”. Moreover, in [3] (setting [16]), the “PI fluorescence compared with live Mp without peptide” value is reported as “fluorescence of live Mp without any peptides were higher”. Also, in the series on Mycoplasma pneumoniae FH [4], the “Killing assay result compared with saline” value was “limited influence on the growth” and the “Cell numbers (CFU/mL) after treatment” value is on record as 3.75×10^6 CFU/mL. Moreover, the “Effect in the biofilm assay” value in the series on Mycoplasma pneumoniae FH [5] is reported as “no difference”.

As for H-GIGKFLHSZKKFGKZFV-NH2 [17base-Ac6c], the “MIC, Gram-positive, S. a.” value in the series on Staphylococcus aureus is 3.13 µM. In addition, the “MIC, Gram-positive, S. e” value in series [1] is 3.13 µM. The “MIC, Gram-negative, P. a.” value with Pseudomonas aeruginosa was 6.25 µM. In addition, the “Haemolysis” value in [2] is 3 µmol/L. In addition, the “MIC, Gram-negative, E. c.” value in the series with Escherichia coli was 3.13 µM. Besides, in [3] (setting [15]), the “PI fluorescence compared with live Mp without peptide” value is on record as “the fluorescence arose”. Also, in the series on Mycoplasma pneumoniae FH [4], the “Killing assay result compared with saline” value is “significant difference” and the “Cell numbers (CFU/mL) after treatment” value is listed as 1.11×10^6 CFU/mL. Also, in the series with Mycoplasma pneumoniae FH [5], the “Concentration with statistically significant effect in the biofilm assay” value is 30 µmol/L.

H-GIKKFLKSZKKFVKZFK-NH2 [17base-Hybrid]: the “Titre (CFU/mL), killing assay” value was 5.80×10^4 ^b CFU/mL in series [7], 1.46×10^5 ^b CFU/mL in series [8], 2.21×10^5 ^b CFU/mL in series [11] and 1.16×10^5 ^b CFU/mL in [14]. In addition, the “Concentration with statistically significant effect in the biofilm assay” value in series [9] was at most 30 µmol/L; in [10], at most 30 µmol/L; in series [12] it was at most 30 µmol/L; with Mycoplasma pneumoniae FH [5], 8 µmol/L. The “MIC, Gram-positive, S. a.” value with Staphylococcus aureus was 3.13 µM. The “MIC, Gram-positive, S. e” value in series [1] is 1.56 µM. Further, the “MIC, Gram-negative, P. a.” value with Pseudomonas aeruginosa is 3.13 µM. In addition, the “MIC, Gram-negative, E. c.” value with Escherichia coli is 3.13 µM. The “PI fluorescence compared with live Mp without peptide” value in series [3] (setting [15]) was “the fluorescence arose”. The “Effect in the biofilm assay” value in [13] was “slight drop of biofilm production”. Moreover, the “Killing assay result compared with saline” value in the series with Mycoplasma pneumoniae FH [4] is recorded as “significant difference”. In addition, the “Cell numbers (CFU/mL) after treatment” value in the series on Mycoplasma pneumoniae FH [4] was 3.50×10^5 CFU/mL.

As for H-KKKLAKLKLGAKLKLKGKLGA-NH2 [Random], the “MIC, Gram-positive, S. a.” value in the series on Staphylococcus aureus was 100 µM. For the same substance, the “MIC, Gram-positive, S. e” value in series [1] was 6.25 µM. Also, in the series with Pseudomonas aeruginosa, the “MIC, Gram-negative, P. a.” value was 3.13 µM. Further, the “MIC, Gram-negative, E. c.” value in the series on Escherichia coli was 12.5 µM. In series [3] (setting [15]), the “PI fluorescence compared with live Mp without peptide” value is reported as “fluorescence of live Mp without any peptides were higher”. Besides, in the series with Mycoplasma pneumoniae FH [4], the “Killing assay result compared with saline” value is recorded as “limited influence on the growth” and the “Cell numbers (CFU/mL) after treatment” value is 4.93×10^6 CFU/mL. Further, the “Effect in the biofilm assay” value in the series on Mycoplasma pneumoniae FH [5] is on record as “no difference”.

In the case of H-KLLKKAGKLLKKAGKLLKKAG-NH2 [Stripe], the “MIC, Gram-positive, S. a.” value with Staphylococcus aureus is 12.5 µM. Besides, the “MIC, Gram-positive, S. e” value in series [1] is 1.56 µM. Moreover, the “MIC, Gram-negative, P. a.” value with Pseudomonas aeruginosa was 1.56 µM. In addition, the “MIC, Gram-negative, E. c.” value with Escherichia coli is 3.13 µM. Besides, the “PI fluorescence compared with live Mp without peptide” value in [3] (setting [16]) was “fluorescence of live Mp without any peptides were higher”. In the series with Mycoplasma pneumoniae FH [4], the “Killing assay result compared with saline” value is given as “limited influence on the growth” and the “Cell numbers (CFU/mL) after treatment” value is 3.71×10^6 CFU/mL. The “Effect in the biofilm assay” value with Mycoplasma pneumoniae FH [5] is listed as “no difference”.
